Experimental data: US20180110799A1, “Compositions and Methods for the Inhibition of Chondrogenesis” (The Children's Hospital of Philadelphia, priority 2014, published 2018)

Legend:
[1] = tested on: ADTC5 chondrogenic cell line; conditions: Brown et al. 2008; cited from earlier work
[2] = tested on: heparanase mRNA; assay: Semi-quantitative RT-PCR of heparanase mRNA in micromass cultures; assay type: cell-based, mouse
Description: (§1) Micromass cultures were prepared from the mesenchymal cells of E11.5 mouse embryo limb buds (Ahrens et al. (1979) Dev. Biol., 69:436-50). Dissociated cells were suspended at a concentration of 5×10^6 cells/ml in DMEM containing 3% fetal bovine serum and antibiotics. Micromass cultures were initiated by spotting 20 μl of the cell suspensions (1.5×10^5 cells) onto the surface of 24-well tissue culture dishes. After a 90-minute incubation at 37° C. in a humidified CO2 incubator to allow for cell attachment, the cultures were supplied with 0.25 ml of medium. After 24 hours, medium supplemented with the indicated concentrations of Surfen (bis-2-methyl-4-aminoquinolyl-6-carbamide), bacterial heparitinase III (Sigma), recombinant human BMP2 (R&D Systems), recombinant human heparanase, or roneparstat (Sigma-Tau Research S.A.). Fresh reagents (drug and/or protein) were given with medium change every other day. Equivalent amounts of vehicle were added to control cultures. Cultures were stained with Alcian blue (pH 1.0) after four and six days to monitor chondrogenic cell differentiation by standard methods. […]
(§2) Total RNA was extracted from cells by the guanidine phenol method using TRIzol® reagent (Invitrogen) according to the manufacturer's protocols and measured using a NanoDrop. […] Band intensities were quantified by computer-assisted image analysis (ImageQuant™ TL, GE Healthcare).

[3] = tested on: endogenous heparanase; assay: Immunoblot of endogenous heparanase protein in ATDC5 cultures; assay type: cell-based, mouse; conditions: compared with the micromass response
Description: ATDC5 cells, derived from mouse embryonal carcinoma, were cultured in 10 cm dishes with a 1:1 mixture of Dulbecco's modified Eagle's medium and Ham's F-12 (Life Technologies) supplemented with 5% fetal bovine serum (ATCC), 10 μg/ml human transferrin (Mediatech), […] sodium selenite (Mediatech), and 20 μg/ml insulin at 37° C. under 5% CO2. Experiments were conducted once cells reached confluence.
ATDC5 cells were grown to 100% confluence in 6-well plates and treated with indicated concentrations of Surfen, bis-2-methyl-4-amino-quinolyl-6-carbamide. Micromass cultures were treated with control vehicle, Surfen, human heparanase, roneparstat, or rhBMP2. At specified time points, total cellular proteins were harvested in SDS-PAGE sample buffer, electrophoresed on 4-15% SDS-Bis-Tris gels (40 μg per lane) and transferred to PVDF membranes (Invitrogen). Membranes were incubated overnight at 4° C. with dilutions of antibodies against phospho-Smad1/5/8 (Cell Signaling Technology 9511, 1:1000), Smad1 (Abcam 63439, 1:500) or human heparanase (Abcam 59787, 1:750). Enhanced chemiluminescent immunoblotting detection system (Pierce) was used to detect the antigen antibody complexes. The membranes were re-blotted with antibodies to α-tubulin (Sigma T-5168, 1:2000) for normalization, and band intensities were quantified by computer-assisted image analysis.

[4] = tested on: endogenous heparanase; assay: Immunoblot of endogenous heparanase protein in micromass cultures; assay type: cell-based, mouse
Description: ATDC5 cells were grown to 100% confluence in 6-well plates and treated with indicated concentrations of Surfen, bis-2-methyl-4-amino-quinolyl-6-carbamide. […] The membranes were re-blotted with antibodies to α-tubulin (Sigma T-5168, 1:2000) for normalization, and band intensities were quantified by computer-assisted image analysis.

[5] = tested on: mesenchymal cells of E11.5 mouse embryo limb buds; assay: Limb bud micromass chondrogenesis, alcian blue staining; assay type: cell-based; conditions: three concentrations up to 20 μg/ml; dose-dependent; day 4 and 6
Description: (§3) Micromass cultures were prepared from the mesenchymal cells of E11.5 mouse embryo limb buds (Ahrens et al. (1979) Dev. Biol., 69:436-50). Dissociated cells were suspended at a concentration of 5×10^6 cells/ml in DMEM containing 3% fetal bovine serum and antibiotics. Micromass cultures were initiated by spotting 20 μl of the cell suspensions […] onto the surface of 24-well tissue culture dishes. After a 90-minute incubation at 37° C. in a humidified CO2 incubator to allow for cell attachment, the cultures were supplied with 0.25 ml of medium. After 24 hours, medium supplemented with the indicated concentrations of Surfen (bis-2-methyl-4-aminoquinolyl-6-carbamide), bacterial heparitinase III (Sigma), recombinant human BMP2 (R&D Systems), recombinant human heparanase, or roneparstat (Sigma-Tau Research S.A.). Fresh reagents (drug and/or protein) were given with medium change every other day. Equivalent amounts of vehicle were added to control cultures. Cultures were stained with Alcian blue (pH 1.0) after four and six days to monitor chondrogenic cell differentiation by standard methods. Micromass analysis was performed using ImageJ. Images were made binary under an RGB threshold, and “Particle Analysis” was utilized to measure nodule size, number, and Alcian blue positive area.

[6] = tested on: mesenchymal cells of E11.5 mouse embryo limb buds; assay: Cell number, density and whole cellular RNA/DNA content of micromass cultures; assay type: cell-based
Description: as §1, with “methods. Micromass analysis was performed using ImageJ.” for “methods.”
(§4) ATDC5 cells were treated at day 0 with human heparanase (400 ng/ml) or a vehicle control. […] DNA isolation was performed using TRIzol® reagent (Invitrogen) according to the manufacturer's protocols and measured using a NanoDrop (ThermoScientific). ATDC5 migration was analyzed via a scratch test. […] The open scratch area was quantified with ImageJ (n=6/treatment group). In micromass cultures, migration was determined by expansion of the micromass itself from day 0 to day 4 or 6. The diameters of untreated micromasses (n=10) were measured and averaged for a baseline size. […]
as §2

[7] = literature; cited from earlier work
[8] = tested on: myeloma and sarcoma cells; conditions: mouse models; Ritchie 2011, Cassinelli 2013; cited from earlier work
[9] = biological target: T1, heparanase (Homo sapiens, UniProt Q9Y251); conditions: Ritchie et al. 2011; cited from earlier work
T1 sequence (Q9Y251 158-543 limits assumed): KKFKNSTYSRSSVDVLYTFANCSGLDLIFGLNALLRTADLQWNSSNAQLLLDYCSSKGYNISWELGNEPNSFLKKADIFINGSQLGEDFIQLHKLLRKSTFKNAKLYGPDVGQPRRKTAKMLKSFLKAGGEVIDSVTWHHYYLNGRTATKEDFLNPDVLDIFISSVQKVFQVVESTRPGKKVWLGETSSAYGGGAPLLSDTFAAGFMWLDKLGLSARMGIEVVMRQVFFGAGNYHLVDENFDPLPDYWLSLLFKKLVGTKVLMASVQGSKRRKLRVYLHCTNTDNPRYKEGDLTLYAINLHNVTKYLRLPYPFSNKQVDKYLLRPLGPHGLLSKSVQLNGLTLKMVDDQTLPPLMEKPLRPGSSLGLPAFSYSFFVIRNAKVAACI
T1 sequence (Q9Y251 36-109 limits assumed): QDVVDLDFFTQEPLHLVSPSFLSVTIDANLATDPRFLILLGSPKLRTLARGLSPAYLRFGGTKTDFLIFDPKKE

[10] = tested on: collagen II (ColII), aggrecan (Agg) and Runx2; assay: Semi-quantitative RT-PCR of chondrogenic marker genes in micromass cultures; assay type: cell-based, mouse; conditions: micromass day 4 and 6
Description: as §3
Total RNA was extracted from cells by the guanidine phenol method using TRIzol® reagent (Invitrogen) according to the manufacturer's protocols and measured using a NanoDrop. One μg of total RNA was reverse transcribed using the SuperScript® III First-Strand Synthesis System (Life Technologies). Band intensities for semiquantitative PCR were normalized to GAPDH and compared while band intensities and cycle numbers were linear. […] Band intensities were quantified by computer-assisted image analysis (ImageQuant™ TL, GE Healthcare).

[11] = tested on: mesenchymal cells of E11.5 mouse embryo limb buds; assay: Micromass diameter (proliferation/migration of peripheral cells); assay type: cell-based; conditions: day 4 and day 6
Description: as §1, with “S.A.).” for “S.A.). Fresh reagents (drug and/or protein) were given with medium change every other day. Equivalent amounts of vehicle were added to control cultures. Cultures were stained with Alcian blue (pH 1.0) after four and six days to monitor chondrogenic cell differentiation by standard methods.”
as §4

[12] = mouse models of diabetic nephropathy; cited from earlier work

PI-88
alcian blue staining and cartilage gene expression [1]: only modest reductions

Cc1cc(N)c2cc(NC(=O)Nc3ccc4nc(C)cc(N)c4c3)ccc2n1 [Surfen, bis-2-methyl-4-aminoquinolyl-6-carbamide]
heparanase mRNA amounts [2]: increased | endogenous heparanase protein levels in ADTC5 cell cultures [3]: very similar response | increase of endogenous heparanase protein levels ([4]; 7.5 μM, limb micromass cultures, immunoblot densitometry): about 8 fold

roneparstat
formation of alcian blue-positive chondrogenic nodules [5]: strongly reduced | overall cell number and density (hematoxylin counterstaining) ([6]; after treatment of micromass cultures): had not changed significantly | whole cellular RNA and DNA content, treated vs untreated ([6]; day 4 and day 6): remained similar | whole cellular RNA and DNA content ([6]; maximal 20 μg/ml dose): minor decreases | anticoagulant properties [7]: without anticoagulant properties | growth of myeloma and sarcoma cells and concomitant angiogenesis [8]: interfere with the growth | inhibitory activity on heparanase [9]: very strong inhibitory activity | expression of Runx2 [10]: dose-dependently inhibited | expression of aggrecan (Agg) [10]: dose-dependently inhibited | expression of collagen II (ColII) [10]: dose-dependently inhibited | overall diameter of micromass cultures vs control [11]: reduced the overall diameter | levels of endogenous heparanase vs untreated control cultures ([4]; micromass cultures, immunoblot): reduced | extent of albuminuria and renal damage [12]: markedly decreases
